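Dose response: 5 concentrations. Exposure: 48 h. Format: 96-well plates. Endpoint: linear interpolation; highest concentration if not reached. The concentration for 50% growth inhibition is given as GI50. TGI is the concentration that stops growth completely.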
Tests used:
Assay in all cases: NCI anticancer screen, dose series, 48 h
NCI-H23 lung = test system: NCI-H23 lung
A549 NSCLC = test system: A549 NSCLC
UO-31 renal = test system: UO-31 renal
SNB-19 CNS = test system: SNB-19 CNS
MDA-MB-231 breast = test system: MDA-MB-231 breast
SR leukemia = test system: SR leukemia
MALME-3M melanoma = test system: MALME-3M melanoma
SNB-75 CNS = test system: SNB-75 CNS
BT-549 breast = test system: BT-549 breast
M14 melanoma = test system: M14 melanoma
IGROV1 ovarian = test system: IGROV1 ovarian
SF-295 CNS = test system: SF-295 CNS
CCRF-CEM leukemia = test system: CCRF-CEM leukemia
HCC-2998 colon = test system: HCC-2998 colon
MOLT-4 leukemia = test system: MOLT-4 leukemia
DU-145 prostate = test system: DU-145 prostate
LOX IMVI melanoma = test system: LOX IMVI melanoma
CAKI-1 renal = test system: CAKI-1 renal
UACC-257 melanoma = test system: UACC-257 melanoma
OVCAR-8 ovarian = test system: OVCAR-8 ovarian
U251 CNS = test system: U251 CNS
OVCAR-5 ovarian = test system: OVCAR-5 ovarian
SW-620 colon = test system: SW-620 colon
UACC-62 melanoma = test system: UACC-62 melanoma
K-562 leukemia = test system: K-562 leukemia
786-0 renal = test system: 786-0 renal
SK-MEL-28 melanoma = test system: SK-MEL-28 melanoma
SK-MEL-5 melanoma = test system: SK-MEL-5 melanoma
OVCAR-3 ovarian = test system: OVCAR-3 ovarian
NCI-H460 lung = test system: NCI-H460 lung
NCI/ADR-RES ovarian = test system: NCI/ADR-RES ovarian
COLO 205 colon = test system: COLO 205 colon
HCT-15 colon = test system: HCT-15 colon
SF-539 CNS = test system: SF-539 CNS
HL-60(TB) leukemia = test system: HL-60(TB) leukemia
MDA-MB-435 = test system: MDA-MB-435
SN12C renal = test system: SN12C renal
ACHN renal = test system: ACHN renal
EKVX NSCLC = test system: EKVX NSCLC
RXF 393 renal = test system: RXF 393 renal
PC-3 prostate = test system: PC-3 prostate
OVCAR-4 ovarian = test system: OVCAR-4 ovarian
HT29 colon = test system: HT29 colon
TK-10 renal = test system: TK-10 renal
NCI-H226 lung = test system: NCI-H226 lung
KM12 colon = test system: KM12 colon
SK-MEL-2 melanoma = test system: SK-MEL-2 melanoma
T-47D breast = test system: T-47D breast
NCI-H522 lung = test system: NCI-H522 lung
RPMI-8226 leukemia = test system: RPMI-8226 leukemia
HOP-92 NSCLC = test system: HOP-92 NSCLC
HCT-116 colon = test system: HCT-116 colon
SK-OV-3 ovarian = test system: SK-OV-3 ovarian
MCF7 breast = test system: MCF7 breast
SF-268 CNS = test system: SF-268 CNS
HOP-62 NSCLC = test system: HOP-62 NSCLC
HS 578T breast = test system: HS 578T breast

## N#CC1=C(N)NC(=S)NC12Nc1ccccc1S2 (stereo unspecified)
NCI-H23 lung
  GI50: 31.4 µM
  TGI: > 100 µM
A549 NSCLC
  GI50: 37.7 µM
  TGI: > 100 µM
UO-31 renal
  GI50: 35.8 µM
  TGI: > 100 µM
SNB-19 CNS
  GI50: 28.1 µM
  TGI: > 100 µM
MDA-MB-231 breast
  GI50: 16.4 µM
  TGI: 70.6 µM
SR leukemia
  GI50: 15.8 µM
  TGI: 46.8 µM
MALME-3M melanoma
  GI50: 24.2 µM
  TGI: 56.8 µM
SNB-75 CNS
  GI50: 30.4 µM
  TGI: > 100 µM
BT-549 breast
  GI50: 18.6 µM
  TGI: 53 µM
M14 melanoma
  GI50: 40.1 µM
  TGI: > 100 µM
IGROV1 ovarian
  GI50: 23.3 µM
  TGI: > 100 µM
SF-295 CNS
  GI50: 11.5 µM
  TGI: 31.7 µM
CCRF-CEM leukemia
  GI50: 15.1 µM
  TGI: 53.3 µM
HCC-2998 colon
  GI50: 33 µM
  TGI: > 100 µM
MOLT-4 leukemia
  GI50: 28.8 µM
  TGI: > 100 µM
DU-145 prostate
  GI50: 17.2 µM
  TGI: > 100 µM
LOX IMVI melanoma
  GI50: 17 µM
  TGI: 44.7 µM
CAKI-1 renal
  GI50: 15 µM
  TGI: 45 µM
UACC-257 melanoma
  GI50: 29 µM
  TGI: > 100 µM
OVCAR-8 ovarian
  GI50: 39.6 µM
  TGI: > 100 µM
U251 CNS
  GI50: 21.4 µM
  TGI: 79.8 µM
OVCAR-5 ovarian
  GI50: 75.7 µM
  TGI: > 100 µM
SW-620 colon
  GI50: 36.7 µM
  TGI: > 100 µM
UACC-62 melanoma
  GI50: 19.7 µM
  TGI: 55.8 µM
K-562 leukemia
  GI50: 30.3 µM
  TGI: > 100 µM
786-0 renal
  GI50: > 100 µM
  TGI: > 100 µM
SK-MEL-28 melanoma
  GI50: 26.3 µM
  TGI: 66.9 µM
SK-MEL-5 melanoma
  GI50: 19.6 µM
  TGI: 54.9 µM
OVCAR-3 ovarian
  GI50: 14.6 µM
  TGI: 38.1 µM
NCI-H460 lung
  GI50: 17 µM
  TGI: 45.8 µM
NCI/ADR-RES ovarian
  GI50: 26.7 µM
  TGI: 88.7 µM
COLO 205 colon
  GI50: 24.8 µM
  TGI: 82.6 µM
HCT-15 colon
  GI50: 28.9 µM
  TGI: > 100 µM
SF-539 CNS
  GI50: 14.7 µM
  TGI: 41.4 µM
HL-60(TB) leukemia
  GI50: 33.6 µM
  TGI: 79.2 µM
MDA-MB-435
  GI50: 19.2 µM
  TGI: 47.6 µM
SN12C renal
  GI50: 20.5 µM
  TGI: 63.6 µM
ACHN renal
  GI50: 21.8 µM
  TGI: 74.3 µM
EKVX NSCLC
  GI50: 3.71 µM
  TGI: 37.9 µM
RXF 393 renal
  GI50: 33.8 µM
  TGI: > 100 µM
PC-3 prostate
  GI50: 22 µM
  TGI: 71.7 µM
OVCAR-4 ovarian
  GI50: 81.4 µM
  TGI: > 100 µM
HT29 colon
  GI50: 31 µM
  TGI: > 100 µM
TK-10 renal
  GI50: 41.5 µM
  TGI: > 100 µM
NCI-H226 lung
  GI50: 31.2 µM
  TGI: > 100 µM
KM12 colon
  GI50: 24.9 µM
  TGI: 75.5 µM
SK-MEL-2 melanoma
  GI50: 44.2 µM
  TGI: > 100 µM
T-47D breast
  GI50: 29.9 µM
  TGI: > 100 µM
NCI-H522 lung
  GI50: 21.3 µM
  TGI: 70.5 µM
RPMI-8226 leukemia
  GI50: 22.2 µM
  TGI: > 100 µM
HOP-92 NSCLC
  GI50: 22.4 µM
  TGI: > 100 µM
HCT-116 colon
  GI50: > 100 µM
  TGI: > 100 µM
SK-OV-3 ovarian
  GI50: 37.1 µM
  TGI: > 100 µM

## O=C1C=CC(=C(c2ccccc2)c2ccc(O)cc2)C=C1
NCI-H23 lung
  TGI: 42.9 µM
A549 NSCLC
  TGI: 36.8 µM
UO-31 renal
  TGI: 29.5 µM
MCF7 breast
  TGI: 37.1 µM
SNB-19 CNS
  TGI: 31.7 µM
MDA-MB-231 breast
  TGI: 32.4 µM
SR leukemia
  TGI: 40.8 µM
MALME-3M melanoma
  TGI: 28.6 µM
SNB-75 CNS
  TGI: 38.2 µM
BT-549 breast
  TGI: 18.7 µM
M14 melanoma
  TGI: 91.6 µM
IGROV1 ovarian
  TGI: 22.5 µM
SF-295 CNS
  TGI: 39.6 µM
CCRF-CEM leukemia
  TGI: > 100 µM
HCC-2998 colon
  TGI: 63.9 µM
MOLT-4 leukemia
  TGI: > 100 µM
DU-145 prostate
  TGI: 53.6 µM
LOX IMVI melanoma
  TGI: 17.9 µM
CAKI-1 renal
  TGI: 32.1 µM
UACC-257 melanoma
  TGI: 31.7 µM
OVCAR-8 ovarian
  TGI: 44.1 µM
U251 CNS
  TGI: 29.2 µM
OVCAR-5 ovarian
  TGI: 49.7 µM
SW-620 colon
  TGI: 90.9 µM
UACC-62 melanoma
  TGI: 28.9 µM
K-562 leukemia
  TGI: 68.1 µM
786-0 renal
  TGI: > 100 µM
SK-MEL-28 melanoma
  TGI: 31.9 µM
SK-MEL-5 melanoma
  TGI: 26.4 µM
OVCAR-3 ovarian
  TGI: 32.5 µM
NCI-H460 lung
  TGI: 41.7 µM
NCI/ADR-RES ovarian
  TGI: > 100 µM
COLO 205 colon
  TGI: 49.7 µM
HCT-15 colon
  TGI: 35.3 µM
SF-268 CNS
  TGI: 43.3 µM
SF-539 CNS
  TGI: 30.8 µM
HL-60(TB) leukemia
  TGI: 47.2 µM
MDA-MB-435
  TGI: 32.5 µM
SN12C renal
  TGI: 29.7 µM
ACHN renal
  TGI: 39.2 µM
EKVX NSCLC
  TGI: 35.9 µM
RXF 393 renal
  TGI: 30.5 µM
PC-3 prostate
  TGI: 47.5 µM
OVCAR-4 ovarian
  TGI: 30.2 µM
HT29 colon
  TGI: 43.4 µM
TK-10 renal
  TGI: 37.4 µM
NCI-H226 lung
  TGI: 38 µM
KM12 colon
  TGI: 41.5 µM
SK-MEL-2 melanoma
  TGI: 32 µM
HOP-62 NSCLC
  TGI: > 100 µM
NCI-H522 lung
  TGI: 28.2 µM
RPMI-8226 leukemia
  TGI: > 100 µM
HS 578T breast
  TGI: 47.7 µM
HOP-92 NSCLC
  TGI: 36.1 µM
HCT-116 colon
  TGI: > 100 µM
